Target: T1, hFASN enzyme (full length) (Homo sapiens, UniProt P49327)
T1 construct: 10 μL hFASN enzyme (full length, 300 ng, purified in house); made in house
Assay: Fatty Acid Synthase (FASN) inhibition scintillation proximity assay
Assay type: biochemical
Conditions: for inhibition at 10 µM: read-out: Human FASN % inhibition @ 10 μM, 10 μM test compound; for IC50: read-out: Human FASN pIC50 (converted)
Summary of the method: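 Compounds at 0.01–30 μM were mixed with 300 ng purified full-length enzyme in 100 mM KH2PO4 pH 7.5, 1 mM DTT. Substrates ³H-acetyl-CoA and malonyl-CoA were then converted, and bead addition stopped the reaction. Signal was normalised to low and high plate controls and fitted by 4-parameter nonlinear regression.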

T1 sequence (P49327 whole entry): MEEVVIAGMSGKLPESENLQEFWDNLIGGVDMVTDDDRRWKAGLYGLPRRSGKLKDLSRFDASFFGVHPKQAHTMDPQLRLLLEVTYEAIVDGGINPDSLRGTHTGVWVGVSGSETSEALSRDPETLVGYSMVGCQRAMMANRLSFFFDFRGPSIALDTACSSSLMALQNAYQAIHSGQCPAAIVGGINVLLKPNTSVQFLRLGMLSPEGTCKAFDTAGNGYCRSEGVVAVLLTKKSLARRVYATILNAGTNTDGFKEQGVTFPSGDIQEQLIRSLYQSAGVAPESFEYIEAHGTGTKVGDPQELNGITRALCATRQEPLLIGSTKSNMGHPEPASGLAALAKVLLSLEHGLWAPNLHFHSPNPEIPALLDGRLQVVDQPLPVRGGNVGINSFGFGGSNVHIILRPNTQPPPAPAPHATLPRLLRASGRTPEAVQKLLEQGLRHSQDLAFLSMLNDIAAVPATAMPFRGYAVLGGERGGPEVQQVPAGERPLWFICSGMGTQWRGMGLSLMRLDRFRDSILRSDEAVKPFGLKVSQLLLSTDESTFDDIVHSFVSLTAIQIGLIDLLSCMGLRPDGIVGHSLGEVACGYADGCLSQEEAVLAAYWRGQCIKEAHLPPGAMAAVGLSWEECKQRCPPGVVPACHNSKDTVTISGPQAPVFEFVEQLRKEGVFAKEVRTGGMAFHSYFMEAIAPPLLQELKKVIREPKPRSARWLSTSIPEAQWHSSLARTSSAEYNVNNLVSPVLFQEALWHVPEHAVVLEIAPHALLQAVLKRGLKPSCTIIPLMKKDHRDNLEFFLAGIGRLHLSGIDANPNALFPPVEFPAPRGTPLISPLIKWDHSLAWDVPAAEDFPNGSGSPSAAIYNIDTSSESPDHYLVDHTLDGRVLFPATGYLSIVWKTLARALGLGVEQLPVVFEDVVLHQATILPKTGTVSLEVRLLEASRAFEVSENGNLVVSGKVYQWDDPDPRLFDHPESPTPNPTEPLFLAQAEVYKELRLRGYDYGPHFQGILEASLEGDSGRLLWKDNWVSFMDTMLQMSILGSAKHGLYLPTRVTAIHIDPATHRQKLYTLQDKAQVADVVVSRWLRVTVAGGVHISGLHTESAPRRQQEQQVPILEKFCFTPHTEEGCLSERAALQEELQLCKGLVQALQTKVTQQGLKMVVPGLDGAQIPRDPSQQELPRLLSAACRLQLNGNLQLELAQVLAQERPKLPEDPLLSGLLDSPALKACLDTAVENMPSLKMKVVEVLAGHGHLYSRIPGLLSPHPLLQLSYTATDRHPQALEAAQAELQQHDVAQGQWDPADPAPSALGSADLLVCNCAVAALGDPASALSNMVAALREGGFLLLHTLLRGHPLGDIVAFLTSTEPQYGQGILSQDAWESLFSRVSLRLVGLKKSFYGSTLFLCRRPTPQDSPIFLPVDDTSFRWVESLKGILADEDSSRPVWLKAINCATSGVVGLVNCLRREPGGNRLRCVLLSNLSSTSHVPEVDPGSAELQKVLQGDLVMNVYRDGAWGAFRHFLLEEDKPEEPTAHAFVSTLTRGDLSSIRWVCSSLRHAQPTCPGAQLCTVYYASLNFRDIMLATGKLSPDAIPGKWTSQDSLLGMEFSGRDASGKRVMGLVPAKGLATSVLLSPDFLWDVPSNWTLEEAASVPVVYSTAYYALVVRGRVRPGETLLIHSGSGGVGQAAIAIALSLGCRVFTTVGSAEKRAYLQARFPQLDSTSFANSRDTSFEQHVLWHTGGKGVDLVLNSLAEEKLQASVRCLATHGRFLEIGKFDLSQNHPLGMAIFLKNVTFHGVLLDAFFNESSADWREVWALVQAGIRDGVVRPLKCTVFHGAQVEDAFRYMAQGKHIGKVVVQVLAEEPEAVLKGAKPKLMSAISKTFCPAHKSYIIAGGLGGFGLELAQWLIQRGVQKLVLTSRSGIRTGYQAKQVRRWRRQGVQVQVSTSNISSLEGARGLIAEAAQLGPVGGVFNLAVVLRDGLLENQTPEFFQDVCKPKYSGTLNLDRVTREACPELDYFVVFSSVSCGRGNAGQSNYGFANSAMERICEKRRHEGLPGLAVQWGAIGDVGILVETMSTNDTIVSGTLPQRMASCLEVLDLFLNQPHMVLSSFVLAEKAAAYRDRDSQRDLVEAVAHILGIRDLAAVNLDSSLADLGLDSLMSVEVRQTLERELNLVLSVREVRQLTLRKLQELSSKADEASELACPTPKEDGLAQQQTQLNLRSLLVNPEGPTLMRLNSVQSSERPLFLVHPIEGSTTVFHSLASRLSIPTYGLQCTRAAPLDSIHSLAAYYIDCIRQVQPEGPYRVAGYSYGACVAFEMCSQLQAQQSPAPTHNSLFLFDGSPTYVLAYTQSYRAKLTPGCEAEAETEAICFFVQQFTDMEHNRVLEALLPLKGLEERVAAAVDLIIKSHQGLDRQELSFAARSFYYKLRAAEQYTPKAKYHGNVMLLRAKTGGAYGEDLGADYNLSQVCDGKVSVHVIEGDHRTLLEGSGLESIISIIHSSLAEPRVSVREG

Compound | inhibition at 10 µM | IC50
COC(=O)N1CC(CN2C(=O)C3(CCOC3)N=C2c2ccc(-c3ccc(-c4cnn(C)c4)cc3)cc2)C1 (centres unmarked) [compound 927, methyl 3-((2-(4′-(1-methyl-1H-pyrazol-4-yl)-[1,1′-biphenyl]-4-yl)-4-oxo-7-oxa-1,3-diazaspiro[4.4]non-1-en-3-yl)methyl)azetidine-1-carboxylate] | -2% | > 10 µM
COC(=O)N1CC(CN2C(=O)C3(CCOCC3)N=C2c2ccc(-c3ccc4occc4c3)cc2)C1 [compound 928] | 10% | > 10 µM
COC(=O)N1CC2(C1)N=C(c1ccc(-c3ccc(-c4cnn(C)c4)cc3)cc1)N(C[C@@H]1CCN(C(=O)c3nccs3)C1)C2=O [compound 929, (R)-methyl 6-(4′-(1-methyl-1H-pyrazol-4-yl)-[1,1′-biphenyl]-4-yl)-8-oxo-7-((1-(thiazole-2-carbonyl)pyrrolidin-3-yl)methyl)-2,5,7-triazaspiro[3.4]oct-5-ene-2-carboxylate] | 6% | > 10 µM
O=C(c1nccs1)N1CC(CN2C(=O)C3(CCOC3)N=C2c2ccc(-c3ccc4cccnc4c3)cc2)C1 (centres unmarked) [compound 930, 2-(4-(quinolin-7-yl)phenyl)-3-((1-(thiazole-2-carbonyl)azetidin-3-yl)methyl)-7-oxa-1,3-diazaspiro[4.4]non-1-en-4-one] | -14% | > 10 µM
COC(=O)N1CC[C@@H](CN2C(=O)C3(CN(C(=O)OC)C3)N=C2c2ccc(-c3ccc4occc4c3)cc2)C1 [compound 931, (S)-methyl 6-(4-(benzofuran-5-yl)phenyl)-7-((1-(methoxycarbonyl)pyrrolidin-3-yl)methyl)-8-oxo-2,5,7-triazaspiro[3.4]oct-5-ene-2-carboxylate] | 31% | > 10 µM
O=C(c1nccs1)N1CC(CN2C(=O)C3(CCOC3)N=C2c2ccc(-c3ccc4occc4c3)cc2)C1 (centres unmarked) [compound 932, 2-(4-(benzofuran-5-yl)phenyl)-3-((1-(thiazole-2-carbonyl)azetidin-3-yl)methyl)-7-oxa-1,3-diazaspiro[4.4]non-1-en-4-one] | 2% | > 10 µM
Cn1ncc2cc(-c3ccc(C4=NC5(CCOC5)C(=O)N4C[C@@H]4CCN(S(C)(=O)=O)C4)cc3)ccc21 (stereo partly drawn) [compound 933, 2-(4-(1-methyl-1H-indazol-5-yl)phenyl)-3-(((S)-1-(methylsulfonyl)pyrrolidin-3-yl)methyl)-7-oxa-1,3-diazaspiro[4.4]non-1-en-4-one] | 5% | > 10 µM
O=C(c1nccs1)N1CCC(CN2C(=O)C3(CCOC3)N=C2c2ccc(-c3ccc4occc4c3)cc2)C1 (centres unmarked) [compound 934, 2-(4-(benzofuran-5-yl)phenyl)-3-((1-(thiazole-2-carbonyl)pyrrolidin-3-yl)methyl)-7-oxa-1,3-diazaspiro[4.4]non-1-en-4-one] | 27% | > 10 µM
Cn1ncc2cc(-c3ccc(C4=NC5(CCOCC5)C(=O)N4CC4CN(C(=O)C(F)(F)F)C4)cc3)ccc21 [compound 935, 2-(4-(1-methyl-1H-indazol-5-yl)phenyl)-3-((1-(2,2,2-trifluoroacetyl)azetidin-3-yl)methyl)-8-oxa-1,3-diazaspiro[4.5]dec-1-en-4-one] | -2% | > 10 µM
COC(=O)N1CC(CN2C(=O)C3(CCOCC3)N=C2c2ccc(-c3ccc(-c4cnn(C)c4)cc3)cc2)C1 [compound 936, methyl 3-((2-(4′-(1-methyl-1H-pyrazol-4-yl)-[1,1′-biphenyl]-4-yl)-4-oxo-8-oxa-1,3-diazaspiro[4.5]dec-1-en-3-yl)methyl)azetidine-1-carboxylate] | 7% | > 10 µM
COC(=O)N1CC(CN2C(=O)C3(CCOCC3)N=C2c2ccc(-c3ccc4c(cnn4C)c3)cc2)C1 [compound 941, methyl 3-((2-(4-(1-methyl-1H-indazol-5-yl)phenyl)-4-oxo-8-oxa-1,3-diazaspiro[4.5]dec-1-en-3-yl)methyl)azetidine-1-carboxylate] | 5% | > 10 µM
CS(=O)(=O)N1CC(CN2C(=O)C3(CCOC3)N=C2c2ccc(-c3ccc4cccnc4c3)cc2)C1 (centres unmarked) [compound 942, 3-((1-(methylsulfonyl)azetidin-3-yl)methyl)-2-(4-(quinolin7-yl)phenyl)-7-oxa-1,3-diazaspiro[4.4]non-1-en-4-one] | 11% | > 10 µM
Cn1ncc2cc(-c3ccc(C4=NC5(CCOC5)C(=O)N4CC4CN(S(C)(=O)=O)C4)cc3)ccc21 (centres unmarked) [compound 944, 2-(4-(1-methyl-1H-indazol-5-yl)phenyl)-3-((1-(methylsulfonyl)azetidin-3-yl)methyl)-7-oxa-1,3-diazaspiro[4.4]non-1-en-4-one] | 5% | > 10 µM
Cn1ncc2cc(-c3ccc(C4=NC5(CCOC5)C(=O)N4CC4CN(C(=O)N5CCCC5)C4)cc3)ccc21 (centres unmarked) [compound 945, 2-(4-(1-methyl-1H-indazol-5-yl)phenyl)-3-((1-(pyrrolidine-1-carbonyl)azetidin-3-yl)methyl)-7-oxa-1,3-diazaspiro[4.4]non-1-en-4-one] | 38% | > 10 µM
COC(=O)N1CC2(C1)N=C(c1ccc(-c3ccc4occc4c3)cc1)N(C[C@@H]1CCN(C(=O)C(F)(F)F)C1)C2=O [compound 946, (R)-methyl 6-(4-(benzofuran-5-yl)phenyl)-8-oxo-7-((1-(2,2,2-trifluoroacetyl)pyrrolidin-3-yl)methyl)-2,5,7-triazaspiro[3.4]oct-5-ene-2-carboxylate] | 37% | > 10 µM
O=C(c1nccs1)N1CC(CN2C(=O)C3(CCOCC3)N=C2c2ccc(-c3ccc4cccnc4c3)cc2)C1 [compound 947, 2-(4-(quinolin-7-yl)phenyl)-3-((1-(thiazole-2-carbonyl)azetidin-3-yl)methyl)-8-oxa-1,3-diazaspiro[4.5]dec-1-ene-4-one] | -14% | > 10 µM
Cn1cc(-c2ccc(-c3ccc(C4=NC5(CCOCC5)C(=O)N4C[C@@H]4CCN(C(=O)c5nccs5)C4)cc3)cc2)cn1 [compound 948, (R)-2-(4′-(1-methyl-1H-pyrazol-4-yl)-[1,1′-biphenyl]-4-yl)-3-((1-(thiazole-2-carbonyl)pyrrolidin-3-yl)methyl)-8-oxa-1,3-diazaspiro[4.5]dec-1-en-4-one] | 25% | > 10 µM
O=C(c1nccs1)N1CC(CN2C(=O)C3(CCOCC3)N=C2c2ccc(-c3ccc4occc4c3)cc2)C1 [compound 949, 2-(4-(benzofuran-5-yl)phenyl)-3-((1-(thiazole-2-carbonyl)azetidin-3-yl)methyl)-8-oxa-1,3-diazaspiro[4.5]dec-1-en-4-one] | -4% | > 10 µM
Cn1cc(-c2ccc(-c3ccc(C4=NC5(CCOC5)C(=O)N4CC4CN(S(C)(=O)=O)C4)cc3)cc2)cn1 (centres unmarked) [compound 950, 2-(4′-(1-methyl-1H-pyrazol-4-yl)-[1,1′-biphenyl]-4-yl)-3-((1-(methylsulfonyl)azetidin-3-yl)methyl)-7-oxa-1,3-diazaspiro[4.4]non-1-en-4-one] | -1.27% | > 10 µM
